Assay results published in ChEMBL document CHEMBL1201862, “PubChem BioAssay data set” (2004).
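Compound exposure: 48 hours, 5 concentrations, 96-well plates. GI50 marks 50% less growth.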 Calls of active or inactive are those of the source. No stated cut-off is given here; in the data, active = GI50 up to about 1.1 µM and inactive = higher. Peptide text beside a SMILES is read from it. * marks the point of attachment. OSu = O=C1CCC(=O)N1O*

Assays:
Assay in all cases: NCI tumour cell line growth inhibition, 48 h
A549 = system: A549
ACHN = system: ACHN
HCC 2998 = system: HCC 2998
K562 = system: K562
KM12 = system: KM12
NCI-H460 = system: NCI-H460
NCI-H522 = system: NCI-H522
OVCAR-3 = system: OVCAR-3
OVCAR-8 = system: OVCAR-8
RXF 393 = system: RXF 393
SF-268 = system: SF-268
SF-295 = system: SF-295
SK-OV-3 = system: SK-OV-3
SNB-19 = system: SNB-19
SNB-75 = system: SNB-75
SW-620 = system: SW-620
LOX IMVI = system: LOX IMVI
UO-31 = system: UO-31
SR = system: SR

SMILES	GI50 (A549)	GI50 (ACHN)	GI50 (HCC 2998)	GI50 (K562)	GI50 (KM12)	GI50 (NCI-H460)	GI50 (NCI-H522)	GI50 (OVCAR-3)	GI50 (OVCAR-8)	GI50 (RXF 393)	GI50 (SF-268)	GI50 (SF-295)	GI50 (SK-OV-3)	GI50 (SNB-19)	GI50 (SNB-75)	GI50 (SW-620)	GI50 (LOX IMVI)	GI50 (UO-31)	GI50 (SR)
CC(=O)O[C@H]1CSC[C@@H](OC(C)=O)C1[N+](=O)[O-] (stereo partly drawn)	> 100 µM (inactive)	93.5 µM (inactive)	33.7 µM (inactive)	26.4 µM (inactive)	63 µM (inactive)	> 100 µM (inactive)	19.4 µM (inactive)	21.5 µM (inactive)	45.5 µM (inactive)	20.1 µM (inactive)	> 100 µM (inactive)	> 100 µM (inactive)	> 100 µM (inactive)	> 100 µM (inactive)	65.2 µM (inactive)	27 µM (inactive)	–	–	–
COc1cc2cc(OC(C)=O)c3cc4c(cc3c2c(OC)c1OC)OCO4	> 100 µM (inactive)	> 100 µM (inactive)	> 100 µM (inactive)	> 100 µM (inactive)	> 100 µM (inactive)	> 100 µM (inactive)	> 100 µM (inactive)	> 100 µM (inactive)	> 100 µM (inactive)	> 100 µM (inactive)	> 100 µM (inactive)	> 100 µM (inactive)	> 100 µM (inactive)	> 100 µM (inactive)	> 100 µM (inactive)	> 100 µM (inactive)	> 100 µM (inactive)	> 100 µM (inactive)	–
COC(=O)C1C(=O)CC2CCCCC21 (stereo not drawn)	> 100 µM (inactive)	> 100 µM (inactive)	> 100 µM (inactive)	> 100 µM (inactive)	> 100 µM (inactive)	> 100 µM (inactive)	> 100 µM (inactive)	> 100 µM (inactive)	–	> 100 µM (inactive)	> 100 µM (inactive)	–	> 100 µM (inactive)	> 100 µM (inactive)	> 100 µM (inactive)	> 100 µM (inactive)	–	> 100 µM (inactive)	> 100 µM (inactive)
O=C1c2cccc3c(Cl)ccc(c23)C(=O)N1CCCN1CCN(CCCN2C(=O)c3cccc4c(Cl)ccc(c34)C2=O)CC1	> 100 µM (inactive)	81.8 µM (inactive)	53.3 µM (inactive)	86.1 µM (inactive)	> 100 µM (inactive)	> 100 µM (inactive)	–	> 100 µM (inactive)	50.9 µM (inactive)	–	–	97.1 µM (inactive)	> 100 µM (inactive)	> 100 µM (inactive)	40.2 µM (inactive)	> 100 µM (inactive)	> 100 µM (inactive)	> 100 µM (inactive)	–
O=C1C=CC(CC(=O)c2ccc3ccccc3c2)O1 (stereo not drawn)	61.9 µM (inactive)	37.3 µM (inactive)	17.2 µM (inactive)	32.9 µM (inactive)	17.5 µM (inactive)	24.2 µM (inactive)	–	25.2 µM (inactive)	18.4 µM (inactive)	20.5 µM (inactive)	17.6 µM (inactive)	> 100 µM (inactive)	68.1 µM (inactive)	32.7 µM (inactive)	37.8 µM (inactive)	26.5 µM (inactive)	21 µM (inactive)	24.3 µM (inactive)	30.3 µM (inactive)
Cc1ccc(SCC(=O)C2=C(O)CCCC2=O)cc1	> 100 µM (inactive)	> 100 µM (inactive)	–	> 100 µM (inactive)	> 100 µM (inactive)	> 100 µM (inactive)	> 100 µM (inactive)	> 100 µM (inactive)	> 100 µM (inactive)	> 100 µM (inactive)	> 100 µM (inactive)	> 100 µM (inactive)	> 100 µM (inactive)	> 100 µM (inactive)	> 100 µM (inactive)	> 100 µM (inactive)	> 100 µM (inactive)	> 100 µM (inactive)	> 100 µM (inactive)
NCCCCC(NC(=O)C(N)Cc1ccc(O)cc1)C(=O)NC(Cc1ccc(O)cc1)C(=O)NC(CCCCN)C(=O)ON1C(=O)CCC1=O (stereo not drawn) (H-YKYK-OSu; configuration not given here)	> 100 µM (inactive)	> 100 µM (inactive)	> 100 µM (inactive)	> 100 µM (inactive)	> 100 µM (inactive)	> 100 µM (inactive)	–	–	> 100 µM (inactive)	> 100 µM (inactive)	–	–	–	> 100 µM (inactive)	> 100 µM (inactive)	> 100 µM (inactive)	–	> 100 µM (inactive)	> 100 µM (inactive)
COc1ccc(C(N)=O)cc1/N=N/N(C)C	> 100 µM (inactive)	> 100 µM (inactive)	> 100 µM (inactive)	> 100 µM (inactive)	> 100 µM (inactive)	> 100 µM (inactive)	> 100 µM (inactive)	> 100 µM (inactive)	78.3 µM (inactive)	–	> 100 µM (inactive)	> 100 µM (inactive)	> 100 µM (inactive)	> 100 µM (inactive)	> 100 µM (inactive)	> 100 µM (inactive)	> 100 µM (inactive)	> 100 µM (inactive)	39.8 µM (inactive)
CC1(C=O)C(=O)CCC2(C)C3CC(=O)OC3CCC12 (stereo not drawn)	> 100 µM (inactive)	> 100 µM (inactive)	> 100 µM (inactive)	> 100 µM (inactive)	> 100 µM (inactive)	> 100 µM (inactive)	> 100 µM (inactive)	> 100 µM (inactive)	> 100 µM (inactive)	> 100 µM (inactive)	> 100 µM (inactive)	> 100 µM (inactive)	> 100 µM (inactive)	> 100 µM (inactive)	> 100 µM (inactive)	> 100 µM (inactive)	> 100 µM (inactive)	> 100 µM (inactive)	–
Clc1ccccc1CN1COc2c(ccc3cccnc23)C1	3.75 µM (inactive)	3.72 µM (inactive)	6.95 µM (inactive)	2.12 µM (inactive)	3.98 µM (inactive)	5.19 µM (inactive)	0.404 µM (active)	3.32 µM (inactive)	4.19 µM (inactive)	3.4 µM (inactive)	3.65 µM (inactive)	3.2 µM (inactive)	8.05 µM (inactive)	11.8 µM (inactive)	7.91 µM (inactive)	3.42 µM (inactive)	4.4 µM (inactive)	1.8 µM (inactive)	–
O=C(CCn1[nH]c(=O)c(Cl)c(Cl)c1=O)NOCCCc1ccccc1	> 100 µM (inactive)	> 100 µM (inactive)	> 100 µM (inactive)	> 100 µM (inactive)	> 100 µM (inactive)	> 100 µM (inactive)	–	> 100 µM (inactive)	> 100 µM (inactive)	–	> 100 µM (inactive)	> 100 µM (inactive)	–	> 100 µM (inactive)	> 100 µM (inactive)	> 100 µM (inactive)	> 100 µM (inactive)	> 100 µM (inactive)	> 100 µM (inactive)
CCCCCCCCCCCCCCCC(=O)OCCOCCOCCOCc1ccccc1	> 100 µM (inactive)	> 100 µM (inactive)	–	–	> 100 µM (inactive)	> 100 µM (inactive)	–	> 100 µM (inactive)	> 100 µM (inactive)	> 100 µM (inactive)	91 µM (inactive)	26 µM (inactive)	–	63.8 µM (inactive)	65.3 µM (inactive)	> 100 µM (inactive)	> 100 µM (inactive)	–	–
O=C1/C(=C/c2ccc(Br)cc2)CCC/C1=C\c1ccc(Br)cc1	12.4 µM (inactive)	12.2 µM (inactive)	2.31 µM (inactive)	4.31 µM (inactive)	3.4 µM (inactive)	10.5 µM (inactive)	13.6 µM (inactive)	4.08 µM (inactive)	3.95 µM (inactive)	5.14 µM (inactive)	17.2 µM (inactive)	–	56.8 µM (inactive)	18.9 µM (inactive)	20.6 µM (inactive)	5.13 µM (inactive)	–	12.3 µM (inactive)	–
C/C(=N/NC(=S)NCCc1ccccn1)c1cnccn1	28.8 µM (inactive)	20.7 µM (inactive)	40.4 µM (inactive)	–	36.9 µM (inactive)	52.5 µM (inactive)	3.6 µM (inactive)	32.1 µM (inactive)	–	–	38.5 µM (inactive)	24.4 µM (inactive)	20.1 µM (inactive)	54.7 µM (inactive)	> 100 µM (inactive)	11.9 µM (inactive)	9.66 µM (inactive)	16.6 µM (inactive)	2.44 µM (inactive)
CCCCNCCCNCCCNC(=O)c1csc(-c2csc(CCNC(=O)C(NC(=O)C(C)C(O)C(C)NC(=O)C(NC(=O)c3nc(C(CC(N)=O)NCC(N)C(N)=O)nc(N)c3C)C(OC3OC(CO)C(O)C(O)C3OC3OC(CO)C(O)C(OC(N)=O)C3O)c3c[nH]cn3)C(C)O)n2)n1 (stereo not drawn)	0.386 µM (active)	< 0.0187 µM (active)	43.7 µM (inactive)	10.1 µM (inactive)	8.67 µM (inactive)	0.0264 µM (active)	0.791 µM (active)	2.86 µM (inactive)	1.92 µM (inactive)	–	0.253 µM (active)	0.0681 µM (active)	4.06 µM (inactive)	6.89 µM (inactive)	0.0589 µM (active)	15.2 µM (inactive)	0.105 µM (active)	0.372 µM (active)	6.44 µM (inactive)
CC1(C)O[C@H]2[C@H](O)C[C@](O)(CO)C[C@H]2O1	> 100 µM (inactive)	> 100 µM (inactive)	–	> 100 µM (inactive)	> 100 µM (inactive)	> 100 µM (inactive)	> 100 µM (inactive)	> 100 µM (inactive)	> 100 µM (inactive)	> 100 µM (inactive)	–	> 100 µM (inactive)	> 100 µM (inactive)	> 100 µM (inactive)	48.2 µM (inactive)	> 100 µM (inactive)	–	> 100 µM (inactive)	> 100 µM (inactive)
